According to patent US20060069132A1, “Azolecarboxamide herbicides” (priority 2004, published 2006):

Legend:
morningglory = assay: Test A pre-/postemergence herbicide test; format: in vivo, Ipomoea spp.
Method in brief: (§1)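 Both application timings were run together: directed soil spray over freshly planted seeds in sandy loam, and runoff spray onto 2–10 cm seedlings. Evaluation after ~10 days in greenhouse used a 0–100 visual scale versus untreated controls.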

redroot pigweed = assay: Test A pre-/postemergence herbicide test; format: in vivo, Amaranthus retroflexus
Method in brief: as §1

Surinam grass [1] = assay: Test B pre-/postemergence herbicide test; format: in vivo, Urochloa decumbens; details: for Surinam Grass plant response rating: postemergence, visual rating
Method in brief: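 Greenhouse pot assay with simultaneous preemergence (treated seed) and postemergence (2–18 cm seedlings) applications of surfactant-containing, non-phytotoxic solvent formulations. Response scored visually 13–15 days later on a 0–100 scale, 100 meaning complete control.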

wheat = assay: Test B postemergence herbicide test; format: in vivo, Triticum aestivum; parameters: key to Wheat plant response rating: 0 = no effect, 100 = complete control; details: scale 0 (no effect) to 100 (complete control); for Plant response rating, Wheat: Postemergence, visual rating after 13 to 15 days; for Wheat plant response rating: postemergence, visual rating
Method in brief: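 Formulated test chemicals went onto postemergence plants measuring 2 to 18 cm, at one to four leaves. For the paddy assay, species had reached two leaves. Scoring took place 13–15 days later by eye, relative to untreated plants, using 0 for no effect up to 100 for full control.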

Surinam grass [2] = assay: Test C pre-/postemergence herbicide test; format: in vivo, Urochloa decumbens; details: for Surinam Grass plant response rating: 500 g ai/ha
Method in brief: (§2)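 Emerged plants at the 1- to 4-leaf stage (2–18 cm), or freshly planted seeds, received test chemicals in a non-phytotoxic solvent mixture with surfactant. Response was visually scored against controls after 12 to 14 days in the greenhouse, on a 0 (no effect) to 100 (complete control) scale.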

goosegrass = assay: Test C pre-/postemergence herbicide test; format: in vivo, Eleusine indica; details: for Goosegrass plant response rating: 500 g ai/ha
Method in brief: as §2

eastern black nightshade = assay: Test C pre-/postemergence herbicide test; format: in vivo, Solanum ptycanthum; details: for Plant response rating, Nightshade / Plant response rating (0 = no effect, 100 = complete control), Nightshade: preemergence; for Plant response rating (0 = no effect, 100 = complete control), Nightshade: 62 g ai/ha; for Nightshade plant response rating: Preemergence, 500 g ai/ha, scale 0 to 100, 0 no effect, 100 complete control
Method in brief: as §2

common ragweed = assay: Test C pre-/postemergence herbicide test; format: in vivo, Ambrosia elatior; parameters: key to Plant response rating, Ragweed: 0 = no effect, 100 = complete control; details: for Ragweed plant response rating: Preemergence, 500 g ai/ha
Method in brief: as §2

[3] = Postemergence, 500 g ai/ha, 0 to 100 scale, 0 no effect, 100 complete control
[4] = Postemergence, 2000 g ai/ha, 0 to 100 scale, 0 no effect, 100 complete control
[5] = Preemergence, 500 g ai/ha, visual rating, 0 to 100 scale (0 no effect, 100 complete control)
[6] = Preemergence, 2000 g ai/ha, 0 to 100 scale, 0 no effect, 100 complete control
[7] = Postemergence, 500 g ai/ha, visual rating after 13 to 15 days, scale 0 (no effect) to 100 (complete control)
[8] = 125 g ai/ha, scale 0 (no effect) to 100 (complete control)
[9] = preemergence, 125 g ai/ha, 0 to 100 scale, 0 is no effect, 100 is complete control
[10] = 31 g ai/ha, preemergence, scale 0 to 100
[11] = 125 g ai/ha, scale 0 (no effect) to 100 (complete control), visual, 12 to 14 days, preemergence
[12] = 250 g ai/ha, scale 0 to 100 (0 no effect, 100 complete control), visual, 12 to 14 days, preemergence
[13] = Postemergence, 250 g ai/ha, scale 0 to 100, 0 no effect, 100 complete control
[14] = postemergence, 125 g ai/ha, scale 0 to 100
[15] = postemergence, 62 g ai/ha, scale 0 to 100
[16] = 125 g ai/ha, scale 0 (no effect) to 100 (complete control), visual, 12 to 14 days
[17] = Preemergence, 2000 g ai/ha, visual rating, 0 to 100 scale (0 no effect, 100 complete control)
[18] = 500 g ai/ha, visual rating 0-100, 0 no effect, 100 complete control, preemergence
[19] = Preemergence, scale 0 to 100, 0 no effect, 100 complete control
[20] = scale 0 to 100, 0 no effect, 100 complete control
[21] = Postemergence, 250 g ai/ha, 0 to 100 scale, 0 no effect, 100 complete control
[22] = Postemergence, 1000 g ai/ha, 0 to 100 scale, 0 no effect, 100 complete control
[23] = Preemergence, 1000 g ai/ha, visual rating, 0 to 100 scale (0 no effect, 100 complete control)
[24] = preemergence, 250 g ai/ha, visual injury, 0 to 100 scale (0 no effect, 100 complete control)
[25] = 500 g ai/ha, scale 0 (no effect) to 100 (complete control)

Row | SMILES | Plant response rating, Morningglory (morningglory; [4]) | Morningglory plant response rating (morningglory; [5]) | Plant response rating, Pigweed (redroot pigweed; [4]) | Pigweed plant response rating (redroot pigweed; [5]) | Plant response rating, Surinam Grass (Surinam grass [1]; [7]) | Surinam Grass plant response rating (Surinam grass [1]; [8]) | Plant response rating, Surinam Grass (Surinam grass [1]; [9]) | Plant response rating, Wheat (wheat; 500 g ai/ha) | Wheat plant response rating (wheat; 125 g ai/ha) | Plant response rating (0 = no effect, 100 = complete control), Surinam Grass (Surinam grass [2]; 62 g ai/ha, preemergence) | Plant response rating, Surinam Grass (Surinam grass [2]; [11]) | Plant response rating, Surinam Grass (Surinam grass [2]; [13]) | Plant response rating, Surinam Grass (Surinam grass [2]; [14]) | Plant response rating (0 = no effect, 100 = complete control), Goosegrass (goosegrass; 62 g ai/ha, preemergence) | Plant response rating, Goosegrass (goosegrass; [11]) | Plant response rating (0 = no effect, 100 = complete control), Nightshade (eastern black nightshade) | Plant response rating, Nightshade (eastern black nightshade; [16]) | Plant response rating (0 = no effect, 100 = complete control), Ragweed (common ragweed; 62 g ai/ha, preemergence) | Plant response rating, Ragweed (common ragweed; [11]) | Plant response rating, Surinam Grass (Surinam grass [1]; [18]) | other results
1 | CCn1nc(C(C)(C)C)cc1C(=O)Nc1ccc(F)c(C(=O)NCCF)c1 [Compound 60] | 20 | 10 | 95 | 95 | 20 | 10 | 10 | 0 | 0 | 0 | 0 | 5 | 5 | 55 | 85 | 30 | 90 | 10 | 80 | – | Plant response rating, Morningglory (morningglory; [3]): 10; Morningglory plant response rating (morningglory; [6]): 40; Plant response rating, Pigweed (redroot pigweed; [3]): 40; Pigweed plant response rating (redroot pigweed; [6]): 100; Plant response rating, Surinam Grass (Surinam grass [2]; [10]): 0; Plant response rating, Surinam Grass (Surinam grass [2]; [12]): 50; Plant response rating, Surinam Grass (Surinam grass [2]; [15]): 5; Plant response rating, Goosegrass (goosegrass; [10]): 10; Plant response rating, Goosegrass (goosegrass; [12]): 95; Plant response rating, Goosegrass (goosegrass; [13]): 5; Plant response rating, Goosegrass (goosegrass; [14]): 0; Plant response rating, Goosegrass (goosegrass; [15]): 0; Plant response rating, Nightshade (eastern black nightshade; 31 g ai/ha, scale 0 to 100): 10; Plant response rating, Nightshade (eastern black nightshade; 250 g ai/ha, scale 0 to 100 (0 no effect, 100 complete control), visual, 12 to 14 days): 90; Plant response rating, Ragweed (common ragweed; [10]): 0; Plant response rating, Ragweed (common ragweed; [12]): 95; Plant response rating, Ragweed (common ragweed; [13]): 5; Plant response rating, Ragweed (common ragweed; [14]): 5; Plant response rating, Ragweed (common ragweed; [15]): 0
2 | CC(=NO)c1cccc(NC(=O)c2cc(C(C)(C)C)nn2C)c1 [Compound 102] | 55 | 65 | 100 | 80 | 100 | 70 | 20 | 20 | 0 | 0 | – | – | – | 90 | 100 | 90 | 100 | 10 | 20 | 40 | Morningglory plant response rating (morningglory; [3]): 35; Morningglory plant response rating (morningglory; [17]): 90; Pigweed plant response rating (redroot pigweed; [3]): 95; Pigweed plant response rating (redroot pigweed; [17]): 90; Surinam Grass plant response rating (Surinam grass [2]; [19]): 50; Goosegrass plant response rating (goosegrass; [19]): 100; Nightshade plant response rating (eastern black nightshade): 100; Ragweed plant response rating (common ragweed; [20]): 100
3 | CCn1nc(C(C)(C)C)cc1C(=O)Nc1cccc(C(C)=NO)c1 [Compound 108] | 40 | 30 | 100 | 100 | 10 | 10 | 50 | 20 | 10 | 30 | 40 | 40 | 40 | 90 | 100 | 100 | 100 | 20 | 20 | 80 | Morningglory plant response rating (morningglory; [3]): 40; Morningglory plant response rating (morningglory; [17]): 75; Pigweed plant response rating (redroot pigweed; [3]): 100; Pigweed plant response rating (redroot pigweed; [17]): 100; Surinam Grass plant response rating (Surinam grass [2]; Postemergence, scale 0 to 100): 50; Surinam Grass plant response rating (Surinam grass [2]; [19]): 90; Plant response rating, Surinam Grass (Surinam grass [2]; [15]): 20; Goosegrass plant response rating (goosegrass; Postemergence, scale 0 to 100): 70; Plant response rating, Goosegrass (goosegrass; [13]): 70; Goosegrass plant response rating (goosegrass; [19]): 100; Plant response rating, Goosegrass (goosegrass; [14]): 40; Plant response rating, Goosegrass (goosegrass; [15]): 20; Nightshade plant response rating (eastern black nightshade): 100; Ragweed plant response rating (common ragweed; [20]): 90
4 | CCn1nc(C(C)(C)C)cc1C(=O)Nc1cccc(S(=O)(=O)C(F)(F)F)c1 [Compound 134] | – | – | – | – | – | 20 | 30 | – | 10 | 0 | 15 | – | – | 20 | 65 | 90 | 95 | 0 | 25 | 50 | Morningglory plant response rating (morningglory; [21]): 10; Plant response rating, Morningglory (morningglory; [22]): 20; Morningglory plant response rating (morningglory; [23]): 30; Morningglory plant response rating (morningglory; [24]): 5; Pigweed plant response rating (redroot pigweed; [21]): 85; Plant response rating, Pigweed (redroot pigweed; [22]): 100; Pigweed plant response rating (redroot pigweed; [23]): 100; Pigweed plant response rating (redroot pigweed; [24]): 35; Surinam Grass plant response rating (Surinam grass [1]; [25]): 40; Wheat plant response rating (wheat; 500 g ai/ha): 20; Surinam Grass plant response rating (Surinam grass [2]; [19]): 75; Goosegrass plant response rating (goosegrass; [19]): 95; Nightshade plant response rating (eastern black nightshade): 100; Ragweed plant response rating (common ragweed; [20]): 100
5 | CCn1nc(C(C)(C)C)cc1C(=O)Nc1cccc(C#N)c1 [Compound 139] | 35 | 30 | 100 | – | – | 10 | 30 | – | – | 0 | 20 | 0 | 0 | 60 | 85 | 95 | 100 | 50 | 50 | 90 | Morningglory plant response rating (morningglory; [3]): 20; Morningglory plant response rating (morningglory; [17]): 85; Pigweed plant response rating (redroot pigweed; [3]): 75; Pigweed plant response rating (redroot pigweed; [17]): 100; Pigweed plant response rating (redroot pigweed; preemergence, 500 g ai/ha, visual injury, 0 to 100 scale (0 no effect, 100 complete control)): 100; Surinam Grass plant response rating (Surinam grass [1]; [25]): 20; Wheat plant response rating (wheat; 500 g ai/ha): 10; Plant response rating, Surinam Grass (Surinam grass [2]; [15]): 0; Plant response rating, Goosegrass (goosegrass; [13]): 5; Plant response rating, Goosegrass (goosegrass; [14]): 0; Plant response rating, Goosegrass (goosegrass; [15]): 0; Plant response rating, Ragweed (common ragweed; [13]): 45; Plant response rating, Ragweed (common ragweed; [14]): 45; Plant response rating, Ragweed (common ragweed; [15]): 0
